In paper PMC6449286, “Influence of Multidrug Resistance-Associated Proteins on the Excretion of the ABCC1 Imaging Probe 6-Bromo-7-[^11C]Methylpurine in Mice” (Molecular Imaging and Biology, 2018):
Marks after values point to notes of the source that are not given here. Each block holds one compound with its values, some of them ahead of it.

Experiments:
[1] = design: method as in PMID 1976057; settings: rats ref 24; cited from earlier work
[2] = Assessment of glutathione conjugation by radio-TLC in mouse tissues and fluids; settings: for Percentage of S-(6-(7-[^11C]methylpurinyl))glutathione in bile / Percentage of S-(6-(7-[^11C]methylpurinyl))glutathione in brain / Percentage of S-(6-(7-[^11C]methylpurinyl))glutathione in kidney / Percentage of S-(6-(7-[^11C]methylpurinyl))glutathione in liver / Percentage of S-(6-(7-[^11C]methylpurinyl))glutathione in urine: 15 min after i.v. injection; for Percentage of S-(6-(7-[^11C]methylpurinyl))glutathione in plasma: 15 min after i.v. injection of 6-bromo-7-[^11C]methylpurine, n=3
Procedure: Assessment of Glutathione Conjugation
6-Bromo-7-[11C]methylpurine (26 ± 8 MBq in a volume of 0.1 ml, 0.15 ± 0.06 nmol) was administered i.v. to wild-type and Abcc1(-/-) mice (n = 3 per group) under isoflurane anesthesia.
After a period of 15 min, blood was collected from the retro-bulbar plexus and animals were euthanized. Brain, liver, kidneys, urine and bile were collected. Blood was centrifuged to obtain plasma and proteins were precipitated by the addition of acetonitrile (1 µl per µl plasma). Liver, kidneys and brain were homogenized using an Ultra Turrax T10 (IKA Laboratory Equipment, Staufen, Germany) and proteins were precipitated with acetonitrile (1 ml per liver, 0.2 ml per kidneys/brain). Urine and bile were diluted with acetonitrile (1 µl per µl urine and bile). All solutions were vortexed and then centrifuged (12,000 x g, 1 min, 21°C). Each supernatant (plasma, brain, liver, kidney, urine, bile, 5 µl each) and diluted radiotracer solution as reference were spotted on silica gel 60F 254 nm TLC plates (10 x 20 cm; Merck, Darmstadt, Germany) and plates were developed in water/acetonitrile/acetic acid (92/8/1, v/v/v). Detection was performed by placing the TLC plates on multisensitive phosphor screens (Perkin-Elmer). […]

Abcc1 [3] = target: T1, Abcc1 (Mus musculus, UniProt O35379); design: method as in PMID 23596979, PMID 18985052; settings: cited from earlier work
T1 construct: from tissue; host or cells: living C57BL/6J mice (wild-type versus Abcc1 knockout), obtained from the University of Oslo

Abcc4 [4] = experiment: 6-bromo-7-[^11C]methylpurine PET in Abcc4^(−/−) mice; type: in vivo; settings: Abcc4^(−/−) vs wild-type mice
Procedure: (§1) Groups of wild-type, Abcc4^(−/−), Abcc1^(−/−), and Abcc1^(+/−) mice underwent a baseline PET scan with 6-bromo-7-[^11C]methylpurine at 30 min after i.p. injection of vehicle solution (PBS). […] In addition, groups of wild-type and Abcc1^(−/−) mice were used to determine the percentage of unchanged 6-bromo-7-[^11C]methylpurine in different tissues and fluids.
(§2) During all experimental procedures, animals were kept under isoflurane anesthesia. PET imaging was conducted on a microPET Focus220 scanner (Siemens Medical Solutions, Knoxville, TN, USA). […] Subsequently, 6-bromo-7-[^11C]methylpurine (29 ± 9 MBq in a volume of 0.1 ml, 0.17 ± 0.11 nmol) was administered as an i.v. bolus via the lateral tail vein, and a 90-min dynamic PET scan (energy window: 250–750 keV; timing window: 6 ns) was initiated at the start of radiotracer injection. […] Blood was centrifuged to obtain plasma and aliquots of blood and plasma were counted for radioactivity in a gamma counter (Wizard 1470; Perkin-Elmer, Waltham, MA, USA).
The PET data were sorted into 25 frames with a duration increasing from 5 s to 20 min. […] Using AMIDE software, brain, right lung, left kidney, urinary bladder, liver, duodenum, intestine, and gall bladder were manually outlined on the PET images to derive concentration-time curves expressed in units of standardized uptake value (SUV = (radioactivity per g/injected radioactivity) × body weight). […] From the log-transformed concentration-time curves in blood, brain, lung, kidney, and liver, the elimination rate constant (kelimination) of radioactivity was determined by linear regression analysis from 17.5 to 80 min after radiotracer injection. A graphical analysis method (integration plot) was used to estimate the rate constant for transfer of radioactivity from blood into different organs (brain, kidney, and liver, kuptake, ml/min/g tissue) using data measured from 0.3 to 3.5 min after radiotracer injection, as described in detail before. […]

Abcc1 [5] = target: T1, Abcc1; experiment: 6-bromo-7-[^11C]methylpurine PET in Abcc1 knockout mice; type: in vivo
Procedure: as §1, §2
(§3) The PET data were sorted into 25 frames with a duration increasing from 5 s to 20 min. Fourier re-binning of the three-dimensional sinograms followed by a two-dimensional filtered back-projection with a ramp filter resulting in a voxel size of 0.4 × 0.4 × 0.796 mm^3 was used to reconstruct the PET data. Using AMIDE software, brain, right lung, left kidney, urinary bladder, liver, duodenum, intestine, and gall bladder were manually outlined on the PET images to derive concentration-time curves expressed in units of standardized uptake value (SUV = (radioactivity per g/injected radioactivity) × body weight). In addition, the left ventricle of the heart was outlined to obtain an image-derived blood curve. For all organs, the area under the concentration-time curve (AUC) from 0 to 90 min after radiotracer injection was calculated using Prism 7 software (GraphPad Software, La Jolla, CA, USA) and organ-to-blood AUC ratios were calculated. From the log-transformed concentration-time curves in blood, brain, lung, kidney, and liver, the elimination rate constant (kelimination) of radioactivity was determined by linear regression analysis from 17.5 to 80 min after radiotracer injection. A graphical analysis method (integration plot) was used to estimate the rate constant for transfer of radioactivity from blood into different organs (brain, kidney, and liver, kuptake, ml/min/g tissue) using data measured from 0.3 to 3.5 min after radiotracer injection, as described in detail before. Moreover, the rate constant for tubular secretion of radioactivity (kurine, min^−1) was determined from 12.5 to 65 min after radiotracer injection using integration plot analysis.

[6] = Baseline 6-bromo-7-[^11C]methylpurine PET in vehicle-treated wild-type mice; type: in vivo
Procedure: as §1, §2, §3

ABCC2 = test system: ABCC2; design: method as in PMID 12695538, PMID 10760098; settings: in vitro ref 20, 21; read-out: IC50 for inhibition of substrate transport by ABCC2; cited from earlier work
ABCC4 [7] = test system: ABCC4; design: method as in PMID 12695538, PMID 10760098; settings: in vitro ref 20, 21; read-out: IC50 for inhibition of substrate transport by ABCC4; cited from earlier work
[8] = MK571 concentrations in plasma and kidneys (HPLC); type: in vivo, mice; settings: mouse, intraperitoneal, 300 mg/kg
Procedure: Assessment of Glutathione Conjugation […]
euthanized. Brain, liver, kidneys, urine and bile were collected. Blood was centrifuged to obtain […]
fluorescence detector (G1321 FLD). […]
obtain a clear supernatant. The resulting supernatants were injected into the HPLC column.
(5 µm, 100-4.6 mm) preceded by a Chromolith Performance RP-18 pre-column (5 µm, 10-4.6 mm), which was isocratically eluted with acetonitrile/methanol/0.1% aqueous acetic acid (30/20/50, v/v/v) at a flow rate of 2 ml/min. For fluorescence detection, an excitation wavelength of 250 nm and an emission wavelength of 410 nm were used. MK571 eluted with a retention time of 10.1 min. Linear calibration curves were generated by spiking drug-free mouse plasma […]
average correlation coefficient: > 0.999).

[9] = Abcc1^(−/−) relative to wild-type mice ref 12, 13

T1 sequence (O35379 whole entry): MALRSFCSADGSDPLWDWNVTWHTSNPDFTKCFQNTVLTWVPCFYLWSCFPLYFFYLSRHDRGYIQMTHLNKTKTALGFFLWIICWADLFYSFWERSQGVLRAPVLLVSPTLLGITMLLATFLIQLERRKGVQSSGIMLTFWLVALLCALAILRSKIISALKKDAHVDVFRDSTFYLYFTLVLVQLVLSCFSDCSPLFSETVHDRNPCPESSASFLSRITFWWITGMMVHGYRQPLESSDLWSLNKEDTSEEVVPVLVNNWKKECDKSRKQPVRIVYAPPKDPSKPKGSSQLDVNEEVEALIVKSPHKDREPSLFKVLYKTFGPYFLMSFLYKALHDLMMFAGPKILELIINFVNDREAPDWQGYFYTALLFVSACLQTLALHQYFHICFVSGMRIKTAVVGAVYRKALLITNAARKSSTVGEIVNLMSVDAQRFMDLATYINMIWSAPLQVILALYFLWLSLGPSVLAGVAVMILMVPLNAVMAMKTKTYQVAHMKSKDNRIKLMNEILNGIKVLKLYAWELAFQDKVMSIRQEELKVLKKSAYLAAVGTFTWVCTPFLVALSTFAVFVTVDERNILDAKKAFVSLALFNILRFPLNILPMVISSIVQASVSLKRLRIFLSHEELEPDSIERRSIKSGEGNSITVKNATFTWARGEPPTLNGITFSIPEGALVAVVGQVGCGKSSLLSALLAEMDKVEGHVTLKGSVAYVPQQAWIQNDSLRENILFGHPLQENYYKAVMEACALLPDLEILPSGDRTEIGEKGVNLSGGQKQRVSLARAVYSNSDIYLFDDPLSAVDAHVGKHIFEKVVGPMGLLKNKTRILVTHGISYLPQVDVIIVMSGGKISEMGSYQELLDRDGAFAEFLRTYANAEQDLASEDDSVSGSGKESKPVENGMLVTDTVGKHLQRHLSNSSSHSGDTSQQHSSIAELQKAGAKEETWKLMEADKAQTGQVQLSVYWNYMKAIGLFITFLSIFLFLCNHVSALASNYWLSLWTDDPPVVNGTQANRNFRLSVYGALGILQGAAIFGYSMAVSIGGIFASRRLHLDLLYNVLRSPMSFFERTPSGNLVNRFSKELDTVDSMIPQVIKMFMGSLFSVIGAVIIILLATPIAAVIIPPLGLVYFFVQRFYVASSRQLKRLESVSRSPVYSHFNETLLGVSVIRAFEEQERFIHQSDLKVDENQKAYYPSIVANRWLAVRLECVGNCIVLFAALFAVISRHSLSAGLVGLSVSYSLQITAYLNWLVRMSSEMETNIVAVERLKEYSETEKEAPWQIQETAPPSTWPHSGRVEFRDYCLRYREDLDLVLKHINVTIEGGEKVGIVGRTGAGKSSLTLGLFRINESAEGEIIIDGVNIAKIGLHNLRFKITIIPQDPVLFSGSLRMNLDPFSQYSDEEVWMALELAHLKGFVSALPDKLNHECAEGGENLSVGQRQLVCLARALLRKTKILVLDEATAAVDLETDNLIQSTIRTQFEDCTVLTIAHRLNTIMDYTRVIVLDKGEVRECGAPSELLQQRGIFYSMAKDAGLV

SMILES: CN(C)C(=O)CCS[C@H](SCCC(=O)O)c1cccc(/C=C/c2ccc3ccc(Cl)cc3n2)c1 (single isomer, unassigned) [(R)-enantiomer of MK571]
Apparent tissue unbound fraction [1]: 0.18

SMILES: CN(C)C(=O)CCS[C@@H](SCCC(=O)O)c1cccc(/C=C/c2ccc3ccc(Cl)cc3n2)c1 (single isomer, unassigned) [(S)-enantiomer of MK571]
Apparent tissue unbound fraction [1]: 0.33

Second part, led by results:

Decrease in kelimination, brain (Abcc4 [4]): 1.5 fold
Decrease in kelimination, kidneys (Abcc4 [4]): 1.4 fold
Decrease in kurine (Abcc4 [4]): 2.3 fold
Plasma-to-blood ratio of radioactivity (Abcc1 [5]; Abcc1^(−/−) mice, venous blood at end of PET scan): 0.60 ± 0.04
Decrease in kurine (Abcc1 [5]; Abcc1^(−/−) vs wild-type mice): 3.4 fold
Decrease in plasma-to-blood ratio of radioactivity (Abcc1 [5]; Abcc1^(−/−) vs wild-type mice): 2.4 fold
Increase in blood AUC (Abcc1 [5]; Abcc1^(−/−) vs wild-type mice): 3.0 fold
Increase in kuptake, liver (Abcc1 [5]; Abcc1^(−/−) vs wild-type mice): 1.6 fold
Reduction in kelimination, blood (Abcc1 [5]; Abcc1^(−/−) vs wild-type mice): 3.6 fold
Reduction in kelimination, lungs (Abcc1 [5]; Abcc1^(−/−) vs wild-type mice): 5.7 fold
Reduction in kelimination,brain (Abcc1 [5]; Abcc1^(−/−) vs wild-type mice): 9.4 fold
Reduction in kelimination,brain (Abcc1 [5]; heterozygous Abcc1^(+/−) vs wild-type mice): 1.3 fold
kelimination,brain ([6]; vehicle-treated wild-type mice): 1.37 ± 0.27 h⁻¹
kuptake,brain ([6]; vehicle-treated wild-type mice): 0.113 ± 0.028 ml/min/g brain
Extraction ratio, liver ([6]; vehicle-treated wild-type mice, assuming hepatic blood flow 1.0 ml/min/g tissue): 0.21
Extraction ratio, kidneys ([6]; vehicle-treated wild-type mice, assuming renal blood flow 4.1 ml/min/g tissue): 0.18
Plasma-to-blood ratio of radioactivity ([6]; wild-type mice, venous blood at end of PET scan): 1.46 ± 0.14
SMILES: [11CH3]n1cnc2ncnc(Br)c21 [6-bromo-7-[^11C]methylpurine]
Unchanged 6-bromo-7-[^11C]methylpurine in tissues and fluids ([2]; mouse, in vivo, 15 min): In none of the investigated tissues and fluids unchanged 6-bromo-7-[^11C]methylpurine could be detected
Reduction in kelimination of radioactivity, brain (Abcc1 [3]; [9]): 9.3 fold
Reduction in kelimination of radioactivity, lungs (Abcc1 [3]; [9]): 17.2 fold
Conversion into glutathione conjugate in brain and lungs (Abcc1 [3]; mice, within 15 min after i.v. injection ref 12, 13): almost quantitatively converted into its glutathione conjugate

concentration at 120 min ([8]; C57BL/6J, kidney, Kidney unbound concentration of MK571, mice, from rat tissue unbound fraction of (R)-enantiomer): 98 µM
concentration at 120 min ([8]; C57BL/6J, kidney, Kidney unbound concentration of MK571, mice, from rat tissue unbound fraction of (S)-enantiomer): 180 µM
concentration at 120 min ([8]; C57BL/6J, kidney, Mean total MK571 concentration in the kidneys, wild-type mice, as restated in discussion): 544 µM
concentration at 120 min ([8]; kidney, MK571 concentration in kidneys, wild-type mice, approximately 120 min after 300 mg/kg i.p.): 544 ± 58 µM
concentration at 120 min ([8]; plasma, MK571 concentration in plasma, wild-type mice, approximately 120 min after 300 mg/kg i.p.): 251 ± 58 µM
SMILES: CN(C)C(=O)CCSC(SCCC(=O)O)c1cccc(/C=C/c2ccc3ccc(Cl)cc3n2)c1 (stereo not drawn) [MK571]
IC50 (ABCC2): 4 µM
IC50 (ABCC4 [7]): 10 µM

Percentage of S-(6-(7-[^11C]methylpurinyl))glutathione in bile ([2]; Abcc1^(−/−) mice): 79 ± 1%
Percentage of S-(6-(7-[^11C]methylpurinyl))glutathione in brain ([2]; Abcc1^(−/−) mice): 52 ± 0.4%
Percentage of S-(6-(7-[^11C]methylpurinyl))glutathione in kidney ([2]; Abcc1^(−/−) mice): 63 ± 1%
Percentage of S-(6-(7-[^11C]methylpurinyl))glutathione in liver ([2]; Abcc1^(−/−) mice): 32 ± 4%
Percentage of S-(6-(7-[^11C]methylpurinyl))glutathione in urine ([2]; Abcc1^(−/−) mice): 63 ± 3^a %
Percentage of S-(6-(7-[^11C]methylpurinyl))glutathione in plasma ([2]; Abcc1^(−/−) mice): 43 ± 2^a %
Percentage of S-(6-(7-[^11C]methylpurinyl))glutathione in bile ([2]; wild-type mice): 81 ± 5%
Percentage of S-(6-(7-[^11C]methylpurinyl))glutathione in brain ([2]; wild-type mice): 60 ± 8%
Percentage of S-(6-(7-[^11C]methylpurinyl))glutathione in kidney ([2]; wild-type mice): 58 ± 2%
Percentage of S-(6-(7-[^11C]methylpurinyl))glutathione in liver ([2]; wild-type mice): 37 ± 2%
Percentage of S-(6-(7-[^11C]methylpurinyl))glutathione in urine ([2]; wild-type mice): 77 ± 4%
Percentage of S-(6-(7-[^11C]methylpurinyl))glutathione in plasma ([2]; wild-type mice): 51 ± 2%
SMILES: Cn1cnc2ncnc(SC[C@H](NC(=O)CC[C@H](N)C(=O)O)C(=O)NCC(=O)O)c21 [S-(6-(7-[^11C]methylpurinyl))glutathione]
